The source of these data is patent US20160228380A1, “IMPREGNANATION OF OXYGEN CARRIER COMPOUNDS INTO CARRIER MATERIALS PROVIDING COMPOSITIONS AND METHODS FOR THE TREATMENT OF WOUNDS AND BURNS” (VIRGINIA COMMONWEALTH UNIVERSITY, priority 2013, published 2016).

Molecules are shown by their SMILES.

A short description of the series: TGA of PFD weight loss from coated aerogel, uncoated aerogel and pure PFD. Particulars: held at 37° C. for 60 minutes, aerogel-free basis. It is filed as physicochemical.

`FC1(F)C(F)(F)C(F)(F)C2(F)C(F)(F)C(F)(F)C(F)(F)C(F)(F)C2(F)C1(F)F` (stereo not shown) [pure PFD, perfluorodecalin]: the “loss of available PFD” value came to 100%.
